Laboratory results: PMC6501426 (Clinical Epigenetics, 2019)

What was measured:
[1] = test system: double DNMT knockout (DKO) HCT116 cells; experiment: MTT proliferation assay DKO HCT116; type: cell-based, human; conditions: 24 and 48 h; MC3353 at 0.5 μM after 48 h; DAC, 5-AZA up to highest dose
Procedure: DKO HCT116 (ATCC, VA, USA) cells were propagated in Dulbecco’s modified Eagle medium (DMEM) (Euroclone, Milan, Italy) with 10% fetal bovine serum (FBS; Euroclone, Milan, Italy), 2 mM L-glutamine (Euroclone, Milan, Italy) and antibiotics (100 U/mL penicillin, 100 µg/mL streptomycin) (Euroclone, Milan, Italy).
(§1) The MTT [3-(4,5-dimethylthiazol-2-yl)-2,5-diphenyltetrazolium bromide] (Sigma-Aldrich, Milan, Italy) assay was used to determine the proliferation of HCT116 clone and DKO HCT116 cells after treatment with MC3353, 5-AZA, and DAC. 5 × 10^4 cells/well for both cell lines were plated in 24-well plate and treated, in duplicate, with compounds at several concentrations for 24 and 48 h of induction. After treatments, MTT solution was added for 3 h at 0.5 mg/mL, the purple formazan crystals were dissolved in DMSO (Sigma-Aldrich, Milan, Italy), and the absorbance was read at a wavelength of 570 nm with reader TECAN M-200.

[2] = test system: methylated UCHL1 promoter EGFP reporter in HCT116 cells; experiment: UCHL1 promoter demethylation assay (EGFP expression, FACS) in HCT116; type: cell-based, human; conditions: 5 μM, 5 days, HCT116 with methylated pUCHL1 vector
Procedure: Human colon cancer HCT116 (ATCC, VA, USA) cells were propagated in McCoy’s 5A medium (Euroclone, Milan, Italy) with 10% fetal bovine serum (FBS; Euroclone), 2 mM L-glutamine (Euroclone), and antibiotics (100 U/mL penicillin, 100 µg/mL streptomycin) (Euroclone). For the treatments with MC3353, 5-AZA, and DAC as positive controls, 2 × 10^4 cells were seeded in 6-well plates in triplicate. Cells were treated every 2 days, and the medium was changed. On day 5, cells were observed under a fluorescent microscope. The nuclei were counterstained with DAPI (10 μg/mL, Invitrogen, Tournai, Belgium).
Fluorescence of EGFP and DAPI in living cells was analyzed by Cytation™ 5 Cell Imaging Multi-Mode Reader (BioTeK, Milan, Italy).
Before the transfection, the pUMLIEP vector was linearized by with ClaI restriction enzyme (New England Biolabs, Milan, Italy) and then it was methylated by SssI-methylase (New England Biolabs, Milan, Italy) for 60 min. The methylated vector was transfected into HCT116 cells using Lipofectamine™2000 (Invitrogen, Monza, Italy) and Opti-MEM® (Gibco, Monza, Italy), and stably introduced clones were selected with puromycin (1.0 μg/mL, Sigma-Aldrich, Milan, Italy). The detailed protocol for the generation of cells highly responsive to DNA demethylating agents is described in [27].
Next, the demethylating activity of MC3353 was evaluated in cells transfected with luciferase and EGFP reporter genes driven by the UCHL1 promoter. The UCHL1 promoter is silenced by methylation in human colon cancer and can be demethylated by specific treatments, inducing expression of Metridia luciferase and EGFP reporter genes. In particular, the pUCHL1 vector, after methylation, was transfected into HCT116 colon cancer cells, and the stable clone was obtained by puromycin selection. Afterwards, cells were treated with 5-AZA (5 μM), with DAC (5 μM), or with MC3353 (0.1 μM) for 5 days. Such a low MC3353 dose was used because of its cytotoxicity at higher concentrations in long treatments.

MMP2 mRNA in PC-3 cells = experiment: qPCR of MMP2 in PC-3; type: cell-based, human; conditions: MC3353 0.1 and 1 μM 24 h; 5-AZA, DAC 5 days, also at 0.1 to 1 μM
Description: (§2) RNAs were extracted by ReliaPrep™ RNA Tissue Miniprep (Promega, Madison, WI, USA) and reverse transcribed with PrimeScript RT Master Mix (Takara, Kusatsu, Shiga, Japan). cDNAs were amplified by a qPCR reaction using GoTaq qPCR Master Mix (Promega) and analyzed with the oligonucleotide pairs specific for the target genes. Relative amounts, determined with the 2^(−ΔCt) method, were normalized with respect to the human housekeeping gene L32. The primers used are as follows: L32 (forward: 5′-[…]-3′, reverse: 5′-[…]-3′), E-cadherin (forward: 5′-[…]-3′, reverse: 5′-[…]-3′), and MMP2 (forward: 5′-[…]-3′, reverse: 5′-[…]-3′).
(§3) Prompted by these findings, we investigated the ability of MC3353 to modulate EMT pathway, using 5-AZA and DAC as reference drugs. […] The levels of mRNA transcripts of E-cadherin and matrix metalloproteinase-2 (MMP2) were determined. E-cadherin is involved in the maintenance of the epithelial identity and in the control of tumor invasiveness, whereas MMP2, through degradation of type IV collagen, the most abundant component of the basement membrane, controls an essential step for metastatic progression of most cancers as well as for induction of angiogenesis.

[3] = test system: E-cadherin mRNA in PC-3 cells; experiment: qPCR of E-cadherin in PC-3; type: cell-based, human; conditions: MC3353 24 h; 5-AZA, DAC 5 days, effect from 1 to 5 μM
Description: as §2, §3

HCT116 cells = experiment: MTT proliferation assay HCT116; type: cell-based, human; conditions: 24 and 48 h; MC3353 from 0.5 μM after 48 h; DAC at 10 μM
Procedure: as §1

[4] = test system: MMP2 mRNA in HCT116 cells; experiment: qPCR of MMP2 in HCT116; type: cell-based, human; conditions: MC3353 0.1 and 1 μM 24 h; 5-AZA, DAC 5 days, also at 0.1 to 1 μM
Description: as §2, §3

[5] = test system: E-cadherin mRNA in HCT116 cells; experiment: qPCR of E-cadherin in HCT116; type: cell-based, human; conditions: MC3353 0.1 μM 24 h; 5-AZA, DAC every 2 days for 5 days at 0.1, 1, 5 μM
Description: as §2, §3

human DNMT1 = molecular target: T1, human DNMT1 (Homo sapiens, UniProt P26358); experiment: DNMT1 assay (radiolabeled SAM, Flashplate); type: biochemical; conditions: radioactivity assay; at least two independent experiments; read-out: EC50 ± SD, hDNMT1
T1 construct: His; made in house
T1 sequence (P26358 whole entry): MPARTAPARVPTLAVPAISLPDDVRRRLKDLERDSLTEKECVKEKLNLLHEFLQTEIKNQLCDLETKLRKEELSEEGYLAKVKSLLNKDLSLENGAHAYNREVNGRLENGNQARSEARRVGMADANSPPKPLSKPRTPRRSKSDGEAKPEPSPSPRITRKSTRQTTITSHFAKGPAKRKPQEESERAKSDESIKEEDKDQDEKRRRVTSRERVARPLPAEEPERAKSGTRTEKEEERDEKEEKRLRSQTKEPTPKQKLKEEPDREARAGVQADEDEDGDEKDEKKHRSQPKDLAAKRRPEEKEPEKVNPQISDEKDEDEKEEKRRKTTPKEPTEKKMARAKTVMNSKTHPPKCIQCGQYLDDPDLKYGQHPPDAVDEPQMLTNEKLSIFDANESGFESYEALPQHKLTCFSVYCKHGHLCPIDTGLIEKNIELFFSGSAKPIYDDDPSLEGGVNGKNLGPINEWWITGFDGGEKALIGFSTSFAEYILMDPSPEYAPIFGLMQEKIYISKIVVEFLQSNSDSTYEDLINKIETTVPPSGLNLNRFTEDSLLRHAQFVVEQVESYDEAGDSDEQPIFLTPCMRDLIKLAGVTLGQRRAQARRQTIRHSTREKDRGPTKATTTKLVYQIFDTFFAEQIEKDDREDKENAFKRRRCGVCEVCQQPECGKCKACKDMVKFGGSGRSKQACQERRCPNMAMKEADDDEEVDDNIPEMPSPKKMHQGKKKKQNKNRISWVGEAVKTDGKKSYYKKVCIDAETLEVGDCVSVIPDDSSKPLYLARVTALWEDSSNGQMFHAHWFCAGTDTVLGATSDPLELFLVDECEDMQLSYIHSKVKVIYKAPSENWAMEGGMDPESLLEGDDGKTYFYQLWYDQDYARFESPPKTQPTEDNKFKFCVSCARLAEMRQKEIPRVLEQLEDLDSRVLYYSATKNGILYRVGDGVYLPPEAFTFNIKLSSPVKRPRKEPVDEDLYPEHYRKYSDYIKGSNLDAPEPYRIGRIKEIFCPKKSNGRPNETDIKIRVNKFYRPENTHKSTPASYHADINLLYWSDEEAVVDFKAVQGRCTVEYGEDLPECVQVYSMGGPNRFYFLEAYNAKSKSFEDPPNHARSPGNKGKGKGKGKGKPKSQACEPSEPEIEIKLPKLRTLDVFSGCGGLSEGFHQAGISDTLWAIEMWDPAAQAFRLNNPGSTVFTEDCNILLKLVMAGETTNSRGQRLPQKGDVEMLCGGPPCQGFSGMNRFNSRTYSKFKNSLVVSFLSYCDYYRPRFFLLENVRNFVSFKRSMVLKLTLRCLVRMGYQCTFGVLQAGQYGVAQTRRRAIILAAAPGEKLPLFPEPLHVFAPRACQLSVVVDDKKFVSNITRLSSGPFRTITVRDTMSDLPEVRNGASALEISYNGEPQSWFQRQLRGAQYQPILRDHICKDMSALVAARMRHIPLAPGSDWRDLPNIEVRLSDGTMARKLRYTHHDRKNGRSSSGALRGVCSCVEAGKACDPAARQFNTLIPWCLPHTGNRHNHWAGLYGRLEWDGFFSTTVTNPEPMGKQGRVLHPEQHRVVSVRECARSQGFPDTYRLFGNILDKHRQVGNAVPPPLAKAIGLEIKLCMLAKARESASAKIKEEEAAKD
Procedure: His-DNMT1 (182 kDa, human) was cloned, expressed, and purified as described by Lee et al.. The DNMT1 assay was performed according to Gros et al.. Briefly, the DNMT1 enzymatic assay is based on the use of radiolabeled SAM, and the methylation occurs in homogeneous phase in 384-well microplates. The reaction is performed with DNMT1 at the final concentration of 90 nM in a total volume of 10 μL including also the chemical compound to be tested at the desired concentration, 1.25 μM of SAM//[methyl-^3H] SAM (3TBq/mmol) mix in a ratio of 3:1 and 0.3 μM of biotinylated DNA duplex. DNMT1, as “maintenance” methyltransferase, requires hemimethylated DNA for the reaction. After 2 h incubation at 37 °C, 8 μL of the reaction’s solution is transferred into a streptavidin 96-well scintillant coated Flashplate^TM containing 190 μL of […] in 50 mM Tris-HCl (pH 7.4). The Flashplate^TM is then agitated at room temperature for 1 h and washed. The plate is read with TopCount (PerkinElmer, Villebon-sur-Yvette, France). The greater the DNMT1 inhibition, the lower will be the scintillation signal correlated to the incorporation of the tritiated methyl groups. In this assay, the negative and positive controls were defined as wells without enzyme and wells without any compound but just DMSO, respectively.

human C-terminal DNMT3A = molecular target: T2, human C-terminal DNMT3A (Homo sapiens, UniProt Q9Y6K1); experiment: DNMT3A restriction-based fluorescence assay; type: biochemical; conditions: fluorescent assay; C-terminal catalytic domain; read-out: EC50 ± SD, hDNMT3A
T2 construct: the C-terminal catalytic domain of human DNMT3A (hDNMT3A)
T2 sequence (Q9Y6K1 634-912 limits assumed): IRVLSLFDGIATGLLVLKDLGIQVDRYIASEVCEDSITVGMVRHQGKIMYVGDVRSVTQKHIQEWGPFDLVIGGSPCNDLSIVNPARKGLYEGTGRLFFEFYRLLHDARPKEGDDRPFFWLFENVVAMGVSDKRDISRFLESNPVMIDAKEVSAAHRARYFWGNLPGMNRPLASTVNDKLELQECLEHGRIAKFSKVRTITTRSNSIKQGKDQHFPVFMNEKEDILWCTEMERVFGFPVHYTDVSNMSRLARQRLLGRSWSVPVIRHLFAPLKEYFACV
Procedure: DNMT3A enzyme inhibition was adapted from the restriction-based fluorescence assay protocol described in Ceccaldi et al.. Briefly, it is performed in a 384-well microplate in a total volume of 50 μL. An oligonucleotide labeled at the 5′ end with biotin is hybridized to his complementary strand labeled at the 3′ end with 6-carboxyfluorescein. The DNA duplex thus formed contains only one single CpG site overlapping with a restriction site of a methylation sensitive restriction enzyme. The duplex is transferred in the wells coated with avidin. Thus, the duplex is fixed to the plate. The methylation reaction is performed by adding human C-terminal DNMT3A at the final concentration of 4 ng/μL in a total volume of 50 μL in the presence of the chemical compound to be tested at the desired concentration and the cofactor SAM at the final concentration of 20 μM. After incubation (1 h at 37 °C), the plate is washed and the methylation sensitive restriction enzyme HpyCH4IV is added. After 1-h incubation at 37 °C, the plate is washed and the fluorescence measured with a PerkinElmer Envision Multilabel Plate Reader (PerkinElmer, Villebon-sur-Yvette, France). The data are expressed as a percentage of inhibition vs. log concentration (M). Data are normalized referring to the “restriction control” (wells coated with labeled duplex not treated nor exposed to DNMT3A, but only cleaved by HpyCH4IV) as the maximum of inhibition (100%) and to the “DMSO control” (wells coated with labeled duplex but treated just with 0.1% DMSO exposed to DNMT3A and then to HpyCH4IV) as the minimum of inhibition (0%; total methylation).

Structure (SMILES) | effect on DKO HCT116 proliferation (MTT) [1] | EGFP gene expression induction (FACS) [2] [%] | MMP2 mRNA expression, PC-3 (MMP2 mRNA in PC-3 cells) | E-cadherin mRNA expression, PC-3 [3] | effect on HCT116 proliferation (MTT) (HCT116 cells) | MMP2 mRNA expression, HCT116 [4] | E-cadherin mRNA expression, HCT116 [5] | EC50 (human DNMT1) [µM] | EC50 (human C-terminal DNMT3A) [µM]
Nc1ncn([C@@H]2O[C@H](CO)[C@@H](O)[C@H]2O)c(=O)n1 [Compound 5-AZA, 5-azacytidine] | weak effect | 38.5 | increased MMP2 level | able to induce E-cadherin expression | negligible effect | increased MMP2 level | able to induce E-cadherin expression | – | –
O=C(O)C(Cc1c[nH]c2ccccc12)N1C(=O)c2ccccc2C1=O (stereo not drawn) [RG-108, reference compound] | – | – | – | – | – | – | – | 390 ± 50 | > 500
